Results published in US8906889B2, “C-3 cycloalkenyl triterpenoids with HIV maturation inhibitory activity” (priority 2012, dated 2014).
Where a name gives a salt, the structure may show the parent alone.

Tested on: recombinant NL4-3 virus (Renilla luciferase, Gag P373S)
Experiment: HIV cell culture assay (luciferase reporter, MT-2 cells)
Type: cell-based
Details: Renilla, NL43, MT-2 cells infected for 4-5 days with NLRluc recombinants; luciferase activity
Procedure: MT-2 cells and 293T cells were obtained from the NIH AIDS Research and Reference Reagent Program. MT-2 cells were propagated in RPMI 1640 media supplemented with 10% heat inactivated fetal bovine serum, […]. The 293T cells were propagated in DMEM media supplemented with 10% heat inactivated fetal bovine serum (FBS), 100 units/ml penicillin G and 100 μg/ml streptomycin. The proviral DNA clone of NL4-3 was obtained from the NIH AIDS Research and Reference Reagent Program. A recombinant NL4-3 virus, in which a section of the nef gene from NL4-3 was replaced with the Renilla luciferase gene, was used as a reference virus. In addition, residue Gag P373 was converted to P373S. Briefly, the recombinant virus was prepared by transfection of the altered proviral clone of NL4-3. Transfections were performed in 293T cells using LipofectAMINE PLUS from Invitrogen (Carlsbad, Calif.), according to manufacturer's instruction. The virus was titered in MT-2 cells using luciferase enzyme activity as a marker. Luciferase was quantitated using the Dual Luciferase kit from Promega (Madison, Wis.), with modifications to the manufacturer's protocol. The diluted Passive Lysis solution was pre-mixed with the re-suspended Luciferase Assay Reagent and the re-suspended Stop & Glo Substrate (2:1:1 ratio). Fifty (50) μL of the mixture was added to each aspirated well on assay plates and luciferase activity was measured immediately on a Wallac TriLux (Perkin-Elmer). Antiviral activities of inhibitors toward the recombinant virus were quantified by measuring luciferase activity in cells infected for 4-5 days with NLRluc recombinants in the presence serial dilutions of the inhibitor.

SMILES | EC50
C=C(C)[C@@H]1CC[C@]2(NCCN3CCOCC3)CC[C@]3(C)[C@H](CC[C@@H]4[C@@]5(C)CC=C(C6=CCC(C(=O)O)CC6)C(C)(C)[C@@H]5CC[C@]43C)[C@@H]12 (stereo partly drawn) [Example 14, 4-((1R,3aS,5aR,5bR,7aR,11aS,11bR,13aR,13bR)-5a,5b,8,8,11a-pentamethyl-3a-((2-morpholinoethyl)amino)-1-(prop-1-en-2-yl)-2,3,3a,4,5,5a,5b,6,7,7a,8,11,11a,11b,12,13,13a,13b-octadecahydro-1H-cyclopenta[a]chrysen-9-yl)cyclohex-3-enecarboxylic acid, TFA] | 5.61 nM
C=C(C)[C@@H]1CC[C@]2(NCCN3CCC(S(C)(=O)=O)CC3)CC[C@]3(C)[C@H](CC[C@@H]4[C@@]5(C)CC=C(C6=CC[C@H](C(=O)O)CC6)C(C)(C)[C@@H]5CC[C@]43C)[C@@H]12 [Example 15, (R)-4-((1R,3aS,5aR,5bR,7aR,11aS,11bR,13aR,13bR)-5a,5b,8,8,11a-pentamethyl-3a-((2-(4-(methylsulfonyl)piperidin-1-yl)ethyl)amino)-1-(prop-1-en-2-yl)-2,3,3a,4,5,5a,5b,6,7,7a,8,11,11a,11b,12,13,13a,13b-octadecahydro-1H-cyclopenta[a]chrysen-9-yl)cyclohex-3-enecarboxylic acid, TFA] | 1.36 nM
C=C(C)[C@@H]1CC[C@]2(NCCN3CCC(S(C)(=O)=O)CC3)CC[C@]3(C)[C@H](CC[C@@H]4[C@@]5(C)CC=C(C6=CC[C@@H](C(=O)O)CC6)C(C)(C)[C@@H]5CC[C@]43C)[C@@H]12 [Example 16, (S)-4-((1R,3aS,5aR,5bR,7aR,11aS,11bR,13aR,13bR)-5a,5b,8,8,11a-pentamethyl-3a-((2-(4-(methylsulfonyl)piperidin-1-yl)ethyl)amino)-1-(prop-1-en-2-yl)-2,3,3a,4,5,5a,5b,6,7,7a,8,11,11a,11b,12,13,13a,13b-octadecahydro-1H-cyclopenta[a]chrysen-9-yl)cyclohex-3-enecarboxylic acid, TFA] | 3.05 nM
C=C(C)[C@@H]1CC[C@]2(N)CC[C@]3(C)[C@H](CC[C@@H]4[C@@]5(C)CC=C(C6=CCC(C(=O)O)CC6)C(C)(C)[C@@H]5CC[C@]43C)[C@@H]12 (stereo partly drawn) [Example 17, 4-((1R,3aS,5aR,5bR,7aR,11aS,11bR,13aR,13bR)-3a-amino-5a,5b,8,8,11a-pentamethyl-1-(prop-1-en-2-yl)-2,3,3a,4,5,5a,5b,6,7,7a,8,11,11a,11b,12,13,13a,13b-octadecahydro-1H-cyclopenta[a]chrysen-9-yl)cyclohex-3-enecarboxylic acid, HCl] | 0.877 nM
C=C(C)[C@@H]1CC[C@]2(NCCO)CC[C@]3(C)[C@H](CC[C@@H]4[C@@]5(C)CC=C(C6=CCC(C(=O)O)CC6)C(C)(C)[C@@H]5CC[C@]43C)[C@@H]12 (stereo partly drawn) [Example 18, 4-((1R,3aS,5aR,5bR,7aR,11aS,11bR,13aR,13bR)-3a-((2-hydroxyethyl)amino)-5a,5b,8,8,11a-pentamethyl-1-(prop-1-en-2-yl)-2,3,3a,4,5,5a,5b,6,7,7a,8,11,11a,11b,12,13,13a,13b-octadecahydro-1H-cyclopenta[a]chrysen-9-yl)cyclohex-3-enecarboxylic acid, TFA] | 1.38 nM
C=C(C)[C@@H]1CC[C@]2(NCCO)CC[C@]3(C)[C@H](CC[C@@H]4[C@@]5(C)CC=C(C6=CC[C@H](C(=O)O)CC6)C(C)(C)[C@@H]5CC[C@]43C)[C@@H]12 [Example 19, (R)-4-((1R,3aS,5aR,5bR,7aR,11aS,11bR,13aR,13bR)-3a-((2-hydroxyethyl)amino)-5a,5b,8,8,11a-pentamethyl-1-(prop-1-en-2-yl)-2,3,3a,4,5,5a,5b,6,7,7a,8,11,11a,11b,12,13,13a,13b-octadecahydro-1H-cyclopenta[a]chrysen-9-yl)cyclohex-3-enecarboxylic acid, TFA] | 1.14 nM
